One data set addresses T1, S. aureus, PDF enzyme (Staphylococcus aureus, UniProt P68826).
T1 sequence (P68826 1-183): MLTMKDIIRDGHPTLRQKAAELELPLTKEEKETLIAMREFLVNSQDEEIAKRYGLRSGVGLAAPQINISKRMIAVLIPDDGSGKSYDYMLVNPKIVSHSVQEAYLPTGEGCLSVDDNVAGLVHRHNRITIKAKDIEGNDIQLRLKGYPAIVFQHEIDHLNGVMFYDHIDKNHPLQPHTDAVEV
As to the kind of experiment: Bacterial peptide deformylase (PDF) assay, colorimetric cell free, f-Met-Ala substrate, TNBS detection at 420 nm. The data set is classed as biochemical. Conditions: means of three experiments; 30 minutes at room temperature, pH 7.2; read-out: PDF enzyme inhibitory activity IC50, S. aureus, PDF enzyme. From the text: To find inhibitors of Peptide Deformylase (PDF), a colorimetric cell free assay for measuring the enzymatic activity of PDF has been adapted to the microtiter plate format (96 wells). The assay comprises three components, purified PDF, f-Met-Ala as substrate and TNBS as the detecting agent of primary amino groups. The resulting TNP-NH-Met-Ala sulfite complex can be detected at 420 nm. PDF enzymes, containing Fe^2+ as the native metal, are purified and are stabilized by the addition of tris(2-carboxyethyl)phosphine (TCEP).
(§1) The IC50 value of a compound of the invention as a bacterial PDF inhibitor was determined using the following assay.
(§2) Assay buffer: 0.1M MOPS pH was adjusted to 7.2 with NaOH, containing 0.25 M NaCl, 100 μg/mL catalase and 1 mg/mL BSA.
S. aureus (15 mg/ml) 10 μl+990 μl Assay buffer, 0.3 μl per ml enzyme mix.
(§3) Substrate mix: 10 mM f-Met-Ala was made up from 200 mM f-Met-Ala in methanol with assay buffer.
(§4) TNBS solution: Freshly dilute 1 M TNBS stock solution diluted 1:10 with water.
(§5) Buffer C, 0.5 M borate buffer adjusted to pH 9.5 with NaOH.
(§6) Buffer D: 0.2 ml of freshly prepared 0.5 M Na2SO3 was mixed with 9.8 mL of 0.5M NaH2PO4.
(§7) Inhibitor solution: 2 mM Sodium 4-(hydroxymercurio) benzoate in assay buffer.
(§8) Compound mix: Compound of formula I dissolved in DMSO in a 10 mg/mL stock solution. Further dilutions were made in DMSO in the concentration range between 0.05 to 100 mM.
The assay was performed in a 96 Microtiter plate containing test compound. To each well containing test compound mix was added 75 microliter of enzyme mix followed by the addition of 25 microliter of substrate mix. The resulting mix was incubated for 30 minutes at room temperature with shaking. TNBS solution (50 microliter/well) was added and the resulting mixture was incubated for 15 minutes under shaking. Buffer C was then added (20 microliter/well). After incubating at room temperature for 15 minutes under shaking, buffer D was added (50 microliter/well). The optical […] was then measured at 420 nm, thereby determining the IC50 value.

In a further data set the target is E. coli, PDF enzyme (Escherichia coli, UniProt P0A6K3). Described as above. The data set is classed as biochemical. As for the experimental part: The assay comprises three components, purified PDF, f-Met-Ala as substrate and TNBS as the detecting agent of primary amino groups. The resulting TNP-NH-Met-Ala sulfite complex can be detected at 420 nm. PDF enzymes, containing Fe^2+ as the native metal, are purified and are stabilized by the addition of tris(2-carboxyethyl)phosphine (TCEP).
Sequence of E. coli, PDF enzyme (P0A6K3 whole entry): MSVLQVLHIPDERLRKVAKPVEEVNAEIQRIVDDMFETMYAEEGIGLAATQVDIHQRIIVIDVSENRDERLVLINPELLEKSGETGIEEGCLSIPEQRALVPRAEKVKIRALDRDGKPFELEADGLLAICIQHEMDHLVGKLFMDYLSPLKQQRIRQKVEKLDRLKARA
as §1, §2
E. coli enzyme (2.5 mg/ml) 10 μl+290 μl Assay buffer, 1 μl per ml enzyme mix.
as §3, §4, §5, §6, §7, §8
The assay was performed in a 96 Microtiter plate containing test compound. […] The optical diffraction was then measured at 420 nm, thereby determining the IC50 value.

For the compound `O=C(NO)c1cc(CSc2ccccc2OC(F)(F)F)on1`, the melting point is 108 to 109 °C (dec.). Regarding `O=C(NO)c1cc(CSc2nccc(-c3cccs3)n2)on1`, the melting point was 165 to 168 °C (dec.). In the case of `CC(c1cc(C(=O)NO)no1)S(=O)(=O)c1ccc(Cl)cc1` (stereo not shown), the melting point is 162 °C (dec.).

For the compound `Cc1ccc(SCc2cc(C(=O)NO)no2)cc1` [Example 1, 5-(4-Toluenesulfanylmethyl)-isoxazole-3-carboxylic acid hydroxyamide], the melting point was 94 to 96 °C (dec.). In addition, the 50% inhibitory concentration (IC50) on S. aureus, PDF enzyme stood at 4000 nM. With `O=C(NO)c1cc(CSc2ccc(Cl)cc2)on1` [Example 2, 5-(4-Chloro-phenylsulfanylmethyl)-isoxazole-3-carboxylic acid hydroxyamide], the IC50 on S. aureus, PDF enzyme came to 1300 nM. Take `O=C(NO)c1cc(CSc2cccc(Cl)c2)on1` [Example 3, 5-(3-Chloro-phenylsulfanylmethyl)-isoxazole-3-carboxylic acid hydroxyamide]: the melting point was 105 to 107 °C (dec.). In addition, the IC50 on S. aureus, PDF enzyme was determined as 2300 nM. As for `O=C(NO)c1cc(CSc2ccccc2Cl)on1` [Example 4, 5-(2-Chloro-phenylsulfanylmethyl)-isoxazole-3-carboxylic acid hydroxyamide], the melting point was 141 to 143 °C (dec.). Further, the half-maximal inhibitory concentration (IC50) at S. aureus, PDF enzyme was 3800 nM.

Turning to `O=C(NO)c1cc(CSc2ccc(Cl)c(Cl)c2)on1` [Example 5, 5-(3,4-Dichloro-phenylsulfanylmethyl)-isoxazole-3-carboxylic acid hydroxyamide], the melting point is 99 to 102 °C (dec.). The IC50 at S. aureus, PDF enzyme was 2000 nM.

For `O=C(NO)c1cc(CSc2ccccc2Br)on1` [Example 6, 5-(2-Bromo-phenylsulfanylmethyl)-isoxazole-3-carboxylic acid hydroxyamide], the melting point is 135 to 136 °C (dec.). In addition, the IC50 at S. aureus, PDF enzyme came to 4900 nM. `O=C(NO)c1cc(CSc2cccc(Br)c2)on1` [Example 7, 5-(3-Bromo-phenylsulfanylmethyl)-isoxazole-3-carboxylic acid hydroxyamide] registered a melting point of 104 to 105 °C. Also, at S. aureus, PDF enzyme, the concentration for half-maximal inhibition (IC50) worked out at 2000 nM. For the compound `CC(C)c1ccccc1SCc1cc(C(=O)NO)no1` [Example 8, 5-(2-Isopropyl-phenylsulfanylmethyl)-isoxazole-3-carboxylic acid hydroxyamide], the melting point was 121 to 123 °C (dec.). In addition, at S. aureus, PDF enzyme, the IC50 is 7600 nM. Turning to `Cc1cc(C)c(SCc2cc(C(=O)NO)no2)c(C)c1` [Example 9, 5-(2,4,6-Trimethyl-phenylsulfanylmethyl)-isoxazole-3-carboxylic acid hydroxyamide], the melting point is 133 to 135 °C (dec.). Moreover, at S. aureus, PDF enzyme, the IC50 was found to be 37700 nM.

Compound `COc1cccc(SCc2cc(C(=O)NO)no2)c1` [Example 11, 5-(3-Methoxy-phenylsulfanylmethyl)-isoxazole-3-carboxylic acid hydroxyamide] had a melting point of 116 °C. The concentration for half-maximal inhibition (IC50) at S. aureus, PDF enzyme turned out to be 2200 nM. As to `O=C(NO)c1cc(CSc2ccc(F)cc2)on1` [Example 12, 5-(4-Fluoro-phenylsulfanylmethyl)-isoxazole-3-carboxylic acid hydroxyamide], the melting point was 98 to 99 °C (dec.). For the same compound, the IC50 at S. aureus, PDF enzyme worked out at 1500 nM.

On to `O=C(NO)c1cc(CSc2ccc(C(F)(F)F)cc2)on1` [Example 13, 5-(4-Trifluoromethyl-phenylsulfanylmethyl)-isoxazole-3-carboxylic acid hydroxyamide], for which the melting point stood at 129 °C. In addition, at S. aureus, PDF enzyme, the IC50 was 8700 nM. In the case of `O=C(NO)c1cc(CSc2ccccc2C(F)(F)F)on1` [Example 14, 5-(2-Trifluoromethyl-phenylsulfanylmethyl)-isoxazole-3-carboxylic acid hydroxyamide], the melting point was 140 to 144 °C (dec.). Besides, the half-maximal inhibitory concentration (IC50) on S. aureus, PDF enzyme was 9300 nM. With `O=C(NO)c1cc(CSCc2cc3ccccc3s2)on1` [Example 16, 5-(Benzothiophen-2-ylmethylsulfanylmethyl)-isoxazole-3-carboxylic acid hydroxyamide], the melting point was 143 to 145 °C (dec.). The IC50 on S. aureus, PDF enzyme was 12700 nM. The compound `O=C(NO)c1cc(CSCc2cccc(C(F)(F)F)c2)on1` [Example 17, 5-(3-Trifluoromethyl-benzylsulfanylmethyl)-isoxazole-3-carboxylic acid hydroxyamide] had a melting point of 109 to 110 °C. At S. aureus, PDF enzyme, the IC50 was 2200 nM.

For `Cc1ccc(S(=O)(=O)Cc2cc(C(=O)NO)no2)cc1` [Example 33, 5-(4-Toluenesulfonylmethyl)-isoxazole-3-carboxylic acid hydroxyamide], the IC50 is 11500 nM on E. coli, PDF enzyme and 1400 nM at S. aureus, PDF enzyme. In the case of `O=C(NO)c1cc(CS(=O)(=O)c2ccc(Cl)cc2)on1` [Example 34, 5-(4-Chloro-benzenesulfonylmethyl)-isoxazole-3-carboxylic acid hydroxyamide], the half-inhibitory concentration (IC50) on S. aureus, PDF enzyme came out at 800 nM. Consider `O=C(NO)c1cc(CS(=O)(=O)c2cccc(Cl)c2)on1` [Example 35, 5-(3-Chloro-benzenesulfonylmethyl)-isoxazole-3-carboxylic acid hydroxyamide], for which the half-maximal inhibitory concentration (IC50) on S. aureus, PDF enzyme is 1700 nM. Turning to `CC(C)c1ccccc1S(=O)(=O)Cc1cc(C(=O)NO)no1` [Example 36, 5-(2-Isopropyl-benzenesulfonylmethyl)-isoxazole-3-carboxylic acid hydroxyamide], the melting point was 170 °C (dec.). Also, the IC50 at S. aureus, PDF enzyme amounted to 3400 nM. `COc1cccc(S(=O)(=O)Cc2cc(C(=O)NO)no2)c1` [Example 37, 5-(3-Methoxy-benzenesulfonylmethyl)-isoxazole-3-carboxylic acid hydroxyamide]: at S. aureus, PDF enzyme, the half-inhibitory concentration (IC50) came to 6500 nM. With `Cc1ccc([S+]([O-])Cc2cc(C(=O)NO)no2)cc1` (stereo not shown) [Example 38, 5-(4-Toluenesulfinylmethyl)-isoxazole-3-carboxylic acid hydroxyamide], the IC50 on S. aureus, PDF enzyme is 900 nM.
